Earlier results in US20120328543A1, “USE OF A CATIONIC, ADVANTAGEOUSLY AMPHOTERIC, SURFACTANT FOR THE PREPARATION OF AN ANTIFUNGAL SOLUTION THAT CAN BE APPLIED TO THE NAIL” (priority 2009, published 2012).

Legend:
[1] = not given; remark: listed apart in the source

## CN(C/C=C/C#CC(C)(C)C)Cc1cccc2ccccc12.Cl [Terbinafine HCl, terbinafine hydrochloride]
other
  solubility in water: 5.32 µg/mL
[1]
  pKa: 7.10
